The numbers were not newly measured in paper PMC8371712 (ACS chemical biology, 2021), which cites them from elsewhere.

For data set [1] the following is noted: no reference given.
Data set [2] deals with aspartate aminotransferase. Particulars: margin of safety statement; no reference given.
Data set [3] deals with hERG potassium ion channel. The following applies: margin of safety statement; no reference given.
Data set [4] concerns release of dopamine in the corpus striatum. The following applies: no reference given.
The test system of data set [5] is Cerep SpectrumScreen panel of 176 pharmacological targets.
The test system of data set [6] is alanine aminotransferase. The following applies: margin of safety statement; no reference given.
Data set [7] deals with various microsomal cytochrome P450 enzymes. Particulars: margin of safety statement; no reference given.

Regarding `N[C@H]1C=C(C(=O)O)CC1=C(F)F` [OV329, (S)-3-amino-(difluoromethylenyl)cyclopent-1-ene-1-carboxylic acid], the Ames test entry in data set [1] was “negative”. Besides, in data set [2], the “activity against aspartate aminotransferase” value is “lack of activity”. For the same compound, the “activity against hERG potassium ion channel” value in data set [3] is reported as “lack of activity”. The “release of dopamine in the corpus striatum” value in data set [4] is given as “blocks the release of dopamine”. In addition, the “activity in Cerep SpectrumScreen panel” value in data set [5] was “lack of activity”. Moreover, the “activity against alanine aminotransferase” value in data set [6] is listed as “lack of activity”. For the same compound, the “activity against microsomal cytochrome P450 enzymes” value in data set [7] is listed as “lack of activity”.
